From patent US20210009541A1, “FUNGICIDAL OXADIAZOLES” (Bayer Aktiengesellschaft, priority 2018, published 2021) come the findings set out here.

A short description of this series: LogP by HPLC on reversed phase columns (EEC directive 79/831 Annex V.A8). The class given is physicochemical. The note with it: for chromatographic logP: reversed phase HPLC column. As to the method:
[table] If more than one Log P value is available within the same method, all the values are given and separated by “+”. […] Lambda-max-values were determined using UV-spectra from 200 nm to 400 nm and the peak values of the chromatographic signals.

The mark [1] stands for this setting: method [a]: LC-UV, acidic range, 0.1% formic acid in water and acetonitrile as eluent.

Read-outs that look alike come from different tables or passages of the source. Marks after values point to notes of the source that are not given here.

Take `ON=C1CCCc2cc(-c3noc(C(F)(F)F)n3)ccc21` [Compound I-001]: the LogP is 3.62^[a]. In the case of `FC(F)(F)c1nc(-c2ccc3nc[nH]c3c2)no1` [Compound I-002], the LogP was 1.46^[a]. As to `Cn1cnc2cc(-c3noc(C(F)(F)F)n3)ccc21` [Compound I-003], the LogP was 1.70^[a]. The same measure, in the same setting: the figure for `Cn1cnc2ccc(-c3noc(C(F)(F)F)n3)cc21` [Compound I-004] is 1.67^[a]; for `FC(F)(F)c1nc(-c2ccc3cn[nH]c3c2)no1` [Compound I-006] it is 2.70^[a]. Still for that read-out and setting: the figure for `FC(F)(F)c1nc(-c2ccc3cnn(Cc4ccccc4)c3c2)no1` [Compound I-007] is 4.34^[a]. On to `FC(F)(F)c1nc(-c2ccc3cn(Cc4ccccc4)nc3c2)no1` [Compound I-008], for which the LogP was 4.03^[a].

In the case of `FC(F)(F)c1nc(-c2ccc3c(cnn3Cc3ccccc3)c2)no1` [Compound I-009], the LogP is 4.39^[a]. Still for that read-out and setting: the figure for `CCn1cc2cc(-c3noc(C(F)(F)F)n3)ccc2n1` [Compound I-010] is 3.15^[a]; for `CCn1ncc2cc(-c3noc(C(F)(F)F)n3)ccc21` [Compound I-011] it is 3.67^[a]. Still for that read-out and setting: for `FC(F)(F)c1nc(-c2ccc3nn(Cc4ccccc4)cc3c2)no1` [Compound I-012] the value was 4.03^[a]; for `CCn1cc2ccc(-c3noc(C(F)(F)F)n3)cc2n1` [Compound I-015], 3.21^[a]; for `COCCn1ncc2ccc(-c3noc(C(F)(F)F)n3)cc21` [Compound I-016], 3.35^[a]. Regarding `COCCn1cc2ccc(-c3noc(C(F)(F)F)n3)cc2n1` [Compound I-017], the LogP was 3.00^[a].

The compound `CONC1CCCc2cc(-c3noc(C(F)(F)F)n3)ccc21` (centres unmarked) [Compound I-018, O-Methyl-N-{6-[5-(trifluoromethyl)-1,2,4-oxadiazol-3-yl]-1,2,3,4-tetrahydronaphthalen-1-yl}hydroxylamine] registered a chromatographic logP under setting [1] of 4.08. On to `CON(C(=O)C1CC1)C1CCCc2cc(-c3noc(C(F)(F)F)n3)ccc21` (centres unmarked) [Compound I-019], for which the LogP was 4.44^[a]. On the same count and under the same terms, the figure for `COCCC(=O)N(OC)C1CCCc2cc(-c3noc(C(F)(F)F)n3)ccc21` (centres unmarked) [Compound I-021] is 3.96^[a]; for `CON(C(=O)c1ccccc1)C1CCCc2cc(-c3noc(C(F)(F)F)n3)ccc21` (centres unmarked) [Compound I-022] it is 4.72^[a]. Under setting [1], `CCN(OC)C1CCCc2cc(-c3noc(C(F)(F)F)n3)ccc21` (centres unmarked) [Compound I-023, N-Ethyl-O-methyl-N-{6-[5-(trifluoromethyl)-1,2,4-oxadiazol-3-yl]-1,2,3,4-tetrahydronaphthalen-1-yl}hydroxylamine] registered a chromatographic logP of 6.04. With `COC(=O)N(OC)C1CCCc2cc(-c3noc(C(F)(F)F)n3)ccc21` (centres unmarked) [Compound I-024], the LogP was 4.34^[a]. The same measure, in the same setting: the figure for `COCCOC(=O)N(OC)C1CCCc2cc(-c3noc(C(F)(F)F)n3)ccc21` (centres unmarked) [Compound I-025] is 4.27^[a]. On the same count and under the same terms, the figure for `COC(=O)N1CCc2ccc(-c3noc(C(F)(F)Cl)n3)cc2C1` [Compound I-026] is 3.83^[a]; for `COC(=O)N1CCCc2cc(-c3noc(C(F)(F)Cl)n3)ccc21` [Compound I-027] it is 4.27^[a]; for `COC(=O)N1CCCc2cc(-c3noc(C(F)(F)F)n3)ccc21` [Compound I-028] it is 4.03^[a]. On the same count and under the same terms, for `CCC(=O)N1CCCc2cc(-c3noc(C(F)(F)Cl)n3)ccc21` [Compound I-029] the value was 3.90^[a]. Regarding `CCC(=O)N1CCCc2cc(-c3noc(C(F)(F)F)n3)ccc21` [Compound I-030], the LogP is 3.68^[a].

`CCC(=O)N1CCc2ccc(-c3noc(C(F)(F)F)n3)cc2C1` [Compound I-031]: the LogP is 3.11^[a].

With `COC(=O)N1CCc2ccc(-c3noc(C(F)(F)F)n3)cc2C1` [Compound I-032], the LogP is 3.59^[a]. Take `CCC(=O)N1CCc2ccc(-c3noc(C(F)(F)Cl)n3)cc2C1` [Compound I-033]: the LogP was 3.31^[a]. In the case of `CN(C)C(=O)Oc1ccc2cc(-c3noc(C(F)(F)F)n3)ccc2c1` [Compound I-034], the LogP was 4.18^[a]. As for `O=C(c1cnc2ccc(-c3noc(C(F)(F)F)n3)cn12)C(F)(F)F` [Compound I-035], the LogP is 3.41^[a]. The same measure, in the same setting: the figure for `FC(F)(F)c1nc(-c2ccc3ncc(Br)n3c2)no1` [Compound I-036] is 2.75^[a]; for `COCCNC(=O)c1cn2cc(-c3noc(C(F)(F)F)n3)ccc2n1` [Compound I-037] it is 2.18^[a]; for `CC(C)(C)OC(=O)N1CCc2cc(-c3noc(C(F)(F)F)n3)ccc2C1` [Compound I-038] it is 4.93^[a]. Same read-out and setting: the figure for `CCOC(=O)c1cn2cc(-c3noc(C(F)(F)F)n3)ccc2n1` [Compound I-039] is 2.59^[a]. On the same count and under the same terms, for `O=C(O)c1cn2cc(-c3noc(C(F)(F)F)n3)ccc2n1` [Compound I-040] the value was 1.41^[a]; for `FC(F)(Cl)c1nc(-c2ccc3nc[nH]c3c2)no1` [Compound I-041], 1.57^[a]; for `Nc1ccc2cc(-c3noc(C(F)(F)F)n3)ccc2c1` [Compound I-042], 3.47^[a]. In the case of `FC(F)(F)c1nc(-c2ccc3ncsc3c2)no1` [Compound I-043], the LogP is 3.21^[a]. On the same count and under the same terms, for `FC(F)(F)c1nc(-c2cc(Cl)c3nn[nH]c3c2)no1` [Compound I-044] the value was 2.78^[a]; for `CCn1c(C)nc2cc(-c3noc(C(F)(F)F)n3)ccc21` [Compound I-045], 1.60^[a]. Still for that read-out and setting: the figure for `FC(F)(Cl)c1nc(-c2ccc3cc[nH]c3c2)no1` [Compound I-046] is 3.68^[a]; for `O=C(C1CC1)N1CCc2cc(-c3noc(C(F)(F)F)n3)ccc2C1` [Compound I-047] it is 3.31^[a]; for `COC(=O)N1CCc2cc(-c3noc(C(F)(F)F)n3)ccc2C1` [Compound I-048] it is 3.63^[a]. Still for that read-out and setting: for `CC(=O)N1CCc2cc(-c3noc(C(F)(F)F)n3)ccc2C1` [Compound I-049] the value was 2.71^[a]; for `O=C(Cc1ccccc1)N1CCc2cc(-c3noc(C(F)(F)F)n3)ccc2C1` [Compound I-050], 3.83^[a]; for `COC(=O)Nc1cc2cc(-c3noc(C(F)(F)F)n3)ccc2cn1` [Compound I-051], 3.45^[a].

Take `CCC(=O)Nc1cc2cc(-c3noc(C(F)(F)F)n3)ccc2cn1` [Compound I-052]: the LogP is 3.33^[a]. Turning to `CC(=O)Nc1ccc(-c2noc(C(F)(F)F)n2)c2c1CCO2` [Compound I-053], the LogP is 2.32^[a]. Same read-out and setting: the figure for `CC(=O)Nc1cc2cc(-c3noc(C(F)(F)F)n3)ccc2cn1` [Compound I-054] is 2.90^[a].

As to `Nc1cc2cc(-c3noc(C(F)(F)F)n3)ccc2cn1` [Compound I-055], the LogP is 2.31^[a]. Same read-out and setting: for `CC(=O)Nc1ccc(-c2noc(C(F)(F)F)n2)c2c1CCC2` [Compound I-056] the value was 3.28^[a]. For `O=C(Nc1ccc2cc(-c3noc(C(F)(F)F)n3)ccc2c1)C(F)(F)F` [Compound I-057], the LogP under setting [1] is 4.27^[a]. For the compound `FC(F)(Cl)c1nc(-c2ccc3ncn(Cc4ccccc4)c3c2)no1` [Compound I-058], the LogP is 3.23^[a].

With `FC(F)(F)c1nc(-c2ccc3ncn(Cc4ccccc4)c3c2)no1` [Compound I-059], the LogP is 3.06^[a].

Turning to `Cn1cnc2cc(-c3noc(C(F)(F)Cl)n3)ccc21` [Compound I-060], the LogP was 1.86^[a]. On the same count and under the same terms, the figure for `Fc1cc2[nH]ncc2cc1-c1noc(C(F)(F)F)n1` [Compound I-061] is 2.61^[a]. Consider `Fc1cc2[nH]ncc2cc1-c1noc(C(F)(F)Cl)n1` [Compound I-062], for which the LogP is 2.78^[a]. The same measure, in the same setting: for `FC(F)(Cl)c1nc(-c2ccc3[nH]ncc3c2)no1` [Compound I-063] the value was 2.84^[a]; for `Fc1cc2c(cnn2Cc2ccccc2)cc1-c1noc(C(F)(F)F)n1` [Compound I-064], 4.28^[a]. On to `Fc1cc2nn(Cc3ccccc3)cc2cc1-c1noc(C(F)(F)F)n1` [Compound I-065], for which the LogP is 3.92^[a]. Turning to `Fc1cc2nn(Cc3ccccc3)cc2cc1-c1noc(C(F)(F)Cl)n1` [Compound I-066], the LogP was 4.11^[a].

A word on the chromatographic logP: it is a lipophilicity value derived from retention on a column.
